Experiments:
ABCB1 transporter [1] = molecular target: T1, ABCB1 transporter (Homo sapiens, UniProt P08183)
ABCB1 transporter [2] = molecular target: T1, ABCB1 transporter; experiment: ATPase stimulation assay (ABCB1 expressed in High Five insect cells); supported by [3H]-paclitaxel accumulation and efflux in SW620/Ad300 cells; assay type: biochemical
ABCG2 transporter = molecular target: T2, ABCG2 transporter (Homo sapiens, UniProt Q9UNQ0); experiment: ATPase stimulation assay (ABCG2 expressed in High Five insect cells); supported by [3H]-mitoxantrone accumulation and efflux in S1-M1-80 cells; assay type: biochemical
T2 sequence (Q9UNQ0 1-655): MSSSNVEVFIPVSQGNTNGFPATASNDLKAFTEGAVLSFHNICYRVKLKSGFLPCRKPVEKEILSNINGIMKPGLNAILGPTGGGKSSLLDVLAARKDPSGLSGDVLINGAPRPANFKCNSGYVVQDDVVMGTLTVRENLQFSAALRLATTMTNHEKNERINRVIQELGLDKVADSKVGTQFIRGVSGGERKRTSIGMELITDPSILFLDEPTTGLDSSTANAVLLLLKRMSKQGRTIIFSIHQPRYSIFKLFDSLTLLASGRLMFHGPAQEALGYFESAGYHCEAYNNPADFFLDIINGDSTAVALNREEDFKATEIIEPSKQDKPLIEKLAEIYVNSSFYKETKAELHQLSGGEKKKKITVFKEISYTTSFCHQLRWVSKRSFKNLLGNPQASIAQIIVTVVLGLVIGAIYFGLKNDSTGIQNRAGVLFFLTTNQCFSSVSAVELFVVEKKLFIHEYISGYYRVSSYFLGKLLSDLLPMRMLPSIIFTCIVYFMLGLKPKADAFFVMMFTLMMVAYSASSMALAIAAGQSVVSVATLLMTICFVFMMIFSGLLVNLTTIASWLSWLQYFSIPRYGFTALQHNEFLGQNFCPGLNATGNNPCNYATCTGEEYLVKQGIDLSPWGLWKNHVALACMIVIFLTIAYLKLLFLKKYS

T1 sequence (P08183 whole entry): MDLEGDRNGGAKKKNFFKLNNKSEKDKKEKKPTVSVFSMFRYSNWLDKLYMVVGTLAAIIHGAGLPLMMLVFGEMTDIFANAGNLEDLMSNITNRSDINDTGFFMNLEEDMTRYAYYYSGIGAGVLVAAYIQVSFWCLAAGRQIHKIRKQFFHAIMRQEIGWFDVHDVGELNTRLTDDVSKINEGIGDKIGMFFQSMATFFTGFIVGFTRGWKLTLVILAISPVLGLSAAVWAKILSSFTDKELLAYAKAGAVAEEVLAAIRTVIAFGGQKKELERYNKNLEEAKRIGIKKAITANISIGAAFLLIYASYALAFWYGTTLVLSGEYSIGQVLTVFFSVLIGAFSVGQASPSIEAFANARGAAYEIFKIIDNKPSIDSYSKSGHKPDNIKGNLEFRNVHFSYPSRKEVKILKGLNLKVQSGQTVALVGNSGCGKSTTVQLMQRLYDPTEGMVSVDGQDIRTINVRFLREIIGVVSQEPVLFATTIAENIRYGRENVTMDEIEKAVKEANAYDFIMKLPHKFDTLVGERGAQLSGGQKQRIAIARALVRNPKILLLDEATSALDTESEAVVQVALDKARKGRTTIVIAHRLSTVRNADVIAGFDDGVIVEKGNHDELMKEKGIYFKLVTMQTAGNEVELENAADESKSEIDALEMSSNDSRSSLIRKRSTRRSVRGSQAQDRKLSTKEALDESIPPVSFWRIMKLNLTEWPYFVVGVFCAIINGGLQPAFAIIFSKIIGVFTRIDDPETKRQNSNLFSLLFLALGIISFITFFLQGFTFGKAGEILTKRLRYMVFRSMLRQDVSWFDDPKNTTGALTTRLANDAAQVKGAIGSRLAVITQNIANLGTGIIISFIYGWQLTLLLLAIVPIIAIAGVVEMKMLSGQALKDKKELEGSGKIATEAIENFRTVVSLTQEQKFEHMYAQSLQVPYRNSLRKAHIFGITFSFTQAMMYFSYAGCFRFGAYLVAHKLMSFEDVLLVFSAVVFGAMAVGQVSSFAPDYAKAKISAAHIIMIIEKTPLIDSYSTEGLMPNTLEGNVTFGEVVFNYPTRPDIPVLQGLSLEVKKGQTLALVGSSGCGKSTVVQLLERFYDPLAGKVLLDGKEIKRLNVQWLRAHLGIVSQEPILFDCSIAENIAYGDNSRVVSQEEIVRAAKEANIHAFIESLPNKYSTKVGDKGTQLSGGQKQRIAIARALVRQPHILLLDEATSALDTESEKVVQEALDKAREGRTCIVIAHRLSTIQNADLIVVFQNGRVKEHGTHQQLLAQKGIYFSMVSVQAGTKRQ

SMILES | radiolabelled substrate accumulation and efflux in SW620/Ad300 vs SW620 cells (ABCB1 transporter [1]) | EC50 (ABCB1 transporter [2]) | EC50 (ABCG2 transporter)
CC(=O)O[C@H]1C(=O)[C@@]2(C)[C@H]([C@H](OC(=O)c3ccccc3)[C@]3(O)C[C@H](OC(=O)[C@H](O)[C@@H](NC(=O)c4ccccc4)c4ccccc4)C(C)=C1C3(C)C)[C@]1(OC(C)=O)CO[C@@H]1C[C@@H]2O [paclitaxel] | overexpression of the ABCB1 transporter increases the efflux of the substrate, [^3H]-paclitaxel |  | 
C=CC(=O)N1CCC(Oc2cc3c(Nc4ccc(Cl)c(Cl)c4F)ncnc3cc2OC)CC1 [poziotinib] |  | 20 nM | 210 nM

From PMC7694178, “Poziotinib Inhibits the Efflux Activity of the ABCB1 and ABCG2 Transporters and the Expression of the ABCG2 Transporter Protein in Multidrug Resistant Colon Cancer Cells” (Cancers, 2020)
